Values of other authors in patent US10238717B2 (Latitude Pharmaceuticals, Inc., priority 2014, dated 2019).
Read-outs that look alike come from different tables or passages of the source.

| Concentration of sugar in water at saturation (25° C.) | Concentration of sugar in water at saturation (20° C.) | SMILES | further results |
| --- | --- | --- | --- |
|  | about 22 % w/v | OC[C@@H](O)[C@@H](O)[C@H](O)[C@@H](O)CO [sorbitol] |  |
|  | about 68.9 % w/v | OC[C@H]1O[C@H](O[C@H]2O[C@H](CO)[C@@H](O)[C@H](O)[C@H]2O)[C@H](O)[C@@H](O)[C@@H]1O [trehalose] |  |

Further lines, the compound ahead of its results:

| SMILES | Concentration of sugar in water at saturation (25° C.) | Concentration of sugar in water at saturation (20° C.) | further results |
| --- | --- | --- | --- |
| OC[C@H]1O[C@@H](O[C@H]2[C@H](O)[C@@H](O)C(O)O[C@@H]2CO)[C@H](O)[C@@H](O)[C@H]1O (some centres unmarked) [lactose] | about 21.6 % w/v |  |  |
| OC[C@@H](O)[C@@H](O)[C@H](O)[C@H](O)CO [mannitol] |  |  | Concentration of sugar in water at saturation (temperature not given): about 25 % w/v |
| OC[C@H]1O[C@@](CO)(O[C@H]2O[C@H](CO)[C@@H](O)[C@H](O)[C@H]2O)[C@@H](O)[C@@H]1O [sucrose] | about 200 % w/v |  |  |
